From publication PMC9610285 (Pharmaceutics, 2022)
“And” between values parts separate entries of the source, which are not always exact repeats. Equal values may be shown once. Read-outs that look alike come from different tables or passages of the source.

Settings: 1 mg single oral dose, fasting; for AUC0-∞: not corrected by dose/weight
Protocol: The data used in this work were obtained from four bioequivalence clinical trials conducted at the Clinical Trials Unit of the Hospital Universitario de La Princesa (UECHUP) (EUDRA-CT IDs: 2012-004433-17, 2013-002159-14, 2014-001123-77 and 2021-000315-23). […] The reference formulation (R) in all cases was Azilect® 1 mg tablets (TEVA Pharmaceuticals Europe B.V.), which was compared against different test formulations (T), all of them 1 mg tablets, except in clinical trial 3, whose test formulation was orodispersible 1 mg. The four bioequivalence trials had two periods and two sequences (TR and RT). In the first period, the volunteers randomly were administered one of the two formulations and, in the following period, after a 7-day washout period, the opposite formulation. All of them were reviewed and approved by Independent Ethics Board (IEB) of the Hospital Universitario de La Princesa, and by the Spanish Drug Agency (AEMPS). In addition, they were performed in accordance with the guidelines of the International Conference on Harmonization for Good Clinical Practice (ICH-GCP), current Spanish legislation and the Revised Declaration of Helsinki. The pharmacogenetic study (SFC-FG-2020-1) was likewise approved by the IEB of Hospital Universitario de La Princesa (registry number 4176, 9 July 2020).
In each period, the drug was administered under fasting conditions, which were maintained until 5 h after drug administration. Each subject provided 20 or 21 blood samples (depending on the clinical trial) that were extracted by BD Vacutainer® vacuum system with EDTA K2 tubes for analysis at different times between 0 h (before receiving the drug) and up to 12 h after drug intake. […] A high-performance liquid chromatography coupled to triple quadrupole mass spectrometry (HPLC-MS/MS) analytical method was used. The latter was validated according to European regulations for bioequivalence assessment, with a lower limit of quantification (LLOQ) of 10 pg/mL and a calibration range of 10–10,000 pg/mL.
Pharmacokinetic parameters were calculated with WinNonlin Professional (Scientific Consulting, Inc., Cary, NC, USA) following a non-compartmental model. The area under the curve (AUC0-t), was obtained by the trapezoidal method. The extrapolation to infinity (AUC0-∞) was determined by the sum of two partial AUCs: AUCt-∞ calculated by the ratio Ct/k, where Ct is the last detectable concentration and k the elimination slope; plus AUC0-t. Cmax and tmax were directly obtained from the plasma time-concentration curves. t1/2 was calculated as Ln2/k. Plasma clearance adjusted for bioavailability (Cl/F) was calculated as dose/AUC. Finally, the volume of distribution adjusted for bioavailability (Vd/F) was calculated by dividing Cl/F by k.
The SPSS software (v23.0, SPSS Inc., Chicago, IL, USA) was used for statistical analyses. AUC0-∞, and Cmax were divided by the dose/weight (DW) ratio to correct sex-related variability related to a varying weight. For the same purpose, Vd/F and Cl/F were divided by weight. With the purpose of normalizing their distributions, all pharmacokinetic parameters were logarithmically transformed for statistical analysis. Initially, a univariate analysis was conducted of the demographic characteristics according to sex and ethnicity, and of the pharmacokinetic parameters or ADR incidence based on sex, biogeographical group (hereinafter, “ethnicity”), genotypes and phenotypes. T-tests were used for the comparison of means for variables with two categories and ANOVA tests for variables with three or more categories, followed by a Bonferroni post-hoc. The Shapiro–Wilk test was used to address the normality of demographic characteristics. For those not following a normal distribution, the nonparametric Kruskal–Wallis test was used.

[1] = SLC22A1*3 (rs12208357) *1/*1, n=104
[2] = SLC22A1*3 (rs12208357) *1/*3, n=8
[3] = SLC22A1*5 (rs34059508) *1/*1, n=113
[4] = SLC22A1*5 (rs34059508) *1/*5, n=5
[5] = Total with CYP1A2 diplotype, n=115
[6] = the single volunteer with the ADR headache

SMILES: C#CCN[C@@H]1CCc2ccccc21 [rasagiline, Rasagiline]
- tmax (CYP2C19 µM, n=3): 0.61 ± 0.35 h
- AUC0-∞/DW (CYP2C19 IM, n=36): 258.70 ± 75.90 ng·kg·h/mL/mg
- Cmax/DW (CYP2C19 IM, n=36): 415.50 ± 185.56 ng·kg/mL/mg
- t1/2 (CYP2C19 IM, n=36): 2.85 ± 0.84 h
- tmax (CYP2C19 IM, n=36): 0.46 ± 0.22 h
- AUC0-∞/DW (CYP2C19 NM, n=56): 267.83 ± 70.38 ng·kg·h/mL/mg
- Cmax/DW (CYP2C19 NM, n=56): 402.65 ± 142.62 ng·kg/mL/mg
- t1/2 (CYP2C19 NM, n=56): 2.67 ± 0.91 h
- tmax (CYP2C19 NM, n=56): 0.53 ± 0.27 h
- AUC0-∞/DW (CYP2C19 PM, n=2): 302.71 ± 14.98 ng·kg·h/mL/mg
- Cmax/DW (CYP2C19 PM, n=2): 412.92 ± 55.36 ng·kg/mL/mg
- t1/2 (CYP2C19 PM, n=2): 1.55 ± 0.41 h
- tmax (CYP2C19 PM, n=2): 0.75 ± 0.11 h
- AUC0-∞/DW (CYP2C19 RM, n=21): 274.03 ± 86.22 ng·kg·h/mL/mg
- Cmax/DW (CYP2C19 RM, n=21): 426.69 ± 180.45 ng·kg/mL/mg
- t1/2 (CYP2C19 RM, n=21): 2.66 ± 0.85 h
- tmax (CYP2C19 RM, n=21): 0.41 ± 0.11 h
- AUC0-∞/DW (Caucasian, n=83): 258.45 ± 71.81 ng·kg·h/mL/mg
- Cmax/DW (Caucasian, n=83): 418.18 ± 169.33 ng·kg/mL/mg
- t1/2 (Caucasian, n=83): 2.56 ± 0.84 h
- tmax (Caucasian, n=83): 0.47 ± 0.19 h
- AUC0-∞/DW (Men, n=53): 278.61 ± 73.51 ng·kg·h/mL/mg
- Cmax/DW (Men, n=53): 447.91 ± 163.88 ng·kg/mL/mg
- t1/2 (Men, n=53): 2.31 ± 0.85 *^& h
- tmax (Men, n=53): 0.52 ± 0.28 h
- AUC0-∞/DW (Mixed ethnicity, n=35): 281.05 ± 80.09 ng·kg·h/mL/mg
- Cmax/DW (Mixed ethnicity, n=35): 389.35 ± 147.25 ng·kg/mL/mg
- t1/2 (Mixed ethnicity, n=35): 2.95 ± 0.94 h
- tmax (Mixed ethnicity, n=35): 0.55 ± 0.31 h
- AUC0-∞/DW (NAT2 RA, n=9): 230.53 ± 67.28 ng·kg·h/mL/mg
- Cmax/DW (NAT2 RA, n=9): 315.46 ± 178.72 ng·kg/mL/mg
- t1/2 (NAT2 RA, n=9): 2.72 ± 0.68 h
- tmax (NAT2 RA, n=9): 0.50 ± 0.24 h
- AUC0-∞/DW (NAT2 SA, n=103): 266.53 ± 75.05 ng·kg·h/mL/mg
- Cmax/DW (NAT2 SA, n=103): 420.47 ± 161.94 (pu = 0.018, pm = 0.018) ng*kg/mL*mg
- t1/2 (NAT2 SA, n=103): 2.62 ± 0.83 h
- tmax (NAT2 SA, n=103): 0.49 ± 0.24 h
- AUC0-∞/DW [1]: 265.80 ± 73.86 ng·kg·h/mL/mg
- Cmax/DW [1]: 401.10 ± 159.35 ng·kg/mL/mg
- t1/2 [1]: 2.71 ± 0.89 h
- tmax [1]: 0.51 ± 0.24 h
- AUC0-∞/DW [2]: 258.87 ± 34.73 ng·kg·h/mL/mg
- Cmax/DW [2]: 473.14 ± 99.07 ng·kg/mL/mg
- t1/2 [2]: 2.22 ± 0.81 h
- tmax [2]: 0.35 ± 0.11 (pu = 0.038 pm = 0.032) h
- AUC0-∞/DW [3]: 267.52 ± 75.21 ng·kg·h/mL/mg
- Cmax/DW [3]: 415.96 ± 161.85 ng·kg/mL/mg
- t1/2 [3]: 2.70 ± 0.89 h
- tmax [3]: 0.49 ± 0.23 h
- AUC0-∞/DW [4]: 211.83 ± 36.15 ng·kg·h/mL/mg
- Cmax/DW [4]: 266.58 ± 130.60 (pu = 0.022, pm = 0.003) ng*kg/mL*mg
- t1/2 [4]: 2.24 ± 0.71 h
- tmax [4]: 0.67 ± 0.24 (pu = 0.018) h
- AUC0-∞/DW [5]: 265.29 ± 75.63 ng·kg·h/mL/mg
- Cmax/DW [5]: 411.77 ± 164.35 ng·kg/mL/mg
- t1/2 [5]: 2.66 ± 0.89 h
- tmax [5]: 0.49 ± 0.24 h
- AUC0-∞/DW (Total, n=118): 265.16 ± 74.74 ng·kg·h/mL/mg
- Cmax/DW (Total, n=118): 409.63 ± 163.00 ng·kg/mL/mg and 409.63 ± 163.01 ng·kg/mL/mg
- t1/2 (Total, n=118): 2.68 ± 0.89 h
- tmax (Total, n=118): 0.49 ± 0.24 h
- AUC0-∞/DW (UGT1A6 rs7592281 G/G, n=111): 264.10 ± 73.64 ng·kg·h/mL/mg
- Cmax/DW (UGT1A6 rs7592281 G/G, n=111): 409.07 ± 159.30 ng·kg/mL/mg
- t1/2 (UGT1A6 rs7592281 G/G, n=111): 2.66 ± 0.89 h
- tmax (UGT1A6 rs7592281 G/G, n=111): 0.48 ± 0.22 h
- AUC0-∞/DW (UGT1A6 rs7592281 G/T, n=7): 281.88 ± 95.76 ng·kg·h/mL/mg
- Cmax/DW (UGT1A6 rs7592281 G/T, n=7): 418.57 ± 229.87 ng·kg/mL/mg
- t1/2 (UGT1A6 rs7592281 G/T, n=7): 3.03 ± 0.72 h
- tmax (UGT1A6 rs7592281 G/T, n=7): 0.70 ± 0.32 (pu = 0.021, pm = 0.029) h
- AUC0-∞/DW (Women, n=65): 254.19 ± 74.50 ng·kg·h/mL/mg
- Cmax/DW (Women, n=65): 378.42 ± 156.70 ng·kg/mL/mg
- t1/2 (Women, n=65): 2.98 ± 0.80 h
- tmax (Women, n=65): 0.48 ± 0.19 h
- AUC0-∞ (men): 3.71 ± 0.88 ng·h/mL
- AUC0-∞/DW [6]: 197.49 ng·kg·h/mL/mg
- Cmax/DW [6]: 339.71 ng·kg/mL/mg
- AUC0-∞ (women): 4.29 ± 1.41 ng·h/mL
